Results taken from US20260070903A1, “NOVEL PYRIDO[3,4-D]PYRIMIDIN-8-ONE DERIVATIVE HAVING PROTEIN KINASE INHIBITORY ACTIVITY, AND PHARMACEUTICAL COMPOSITION FOR PREVENTING, ALLEVIATING, OR TREATING CANCER, COMPRISING SAME” (KOREA INSTITUTE OF SCIENCE AND TECHNOLOGY, priority 2019, published 2026).

Legend:
[1] = molecular target: TIE2 (Homo sapiens, UniProt Q02763); experiment: Kinase panel biochemical assay, TIE2; conditions: single concentration of 1 μM, read-out: percent inhibition of kinase
Procedure: (§1) As a test compound, Compound No. 55 was used. The percent inhibition of each kinase when treated with the test compound at a single concentration of 1 μM was measured, and the residual enzyme activity values (%) of the kinases were calculated. Kinases whose calculated residual enzyme activity values (%) was 30% or less (i.e., kinases inhibited by 70% or more) are as follows: […]

[2] = molecular target: SRMS (Homo sapiens, UniProt Q9H3Y6); experiment: Kinase panel biochemical assay, SRMS; conditions: single concentration of 1 μM, read-out: percent inhibition of kinase
Procedure: as §1

[3] = molecular target: EPHA4 (Homo sapiens, UniProt P54764); experiment: Kinase panel biochemical assay, EPHA4; conditions: single concentration of 1 μM, read-out: percent inhibition of kinase
Procedure: as §1

[4] = molecular target: EPHA3 (Homo sapiens, UniProt P29320); experiment: Kinase panel biochemical assay, EPHA3; conditions: single concentration of 1 μM, read-out: percent inhibition of kinase
Procedure: as §1

[5] = molecular target: T1, ACK1 (Homo sapiens, UniProt Q07912); experiment: Inhibitory activity against ACK1 kinase (IC50); assay type: biochemical
Procedure: The inhibitory activities of the compounds of the present disclosure against two kinases, GCK and ACK1, were measured, and the IC50 values thereof were calculated.

[6] = molecular target: FLT4 (Homo sapiens, UniProt P35916); experiment: Kinase panel biochemical assay, FLT4; conditions: single concentration of 1 μM, read-out: percent inhibition of kinase
Procedure: as §1

[7] = molecular target: EPHB4 (Homo sapiens, UniProt P54760); experiment: Kinase panel biochemical assay, EPHB4; conditions: single concentration of 1 μM, read-out: percent inhibition of kinase
Procedure: as §1

[8] = molecular target: ABL2 (Homo sapiens, UniProt P42684); experiment: Kinase panel biochemical assay, ABL2; conditions: single concentration of 1 μM, read-out: percent inhibition of kinase
Procedure: as §1

[9] = molecular target: p38b (Homo sapiens, UniProt Q15759); experiment: Kinase panel biochemical assay, p38b; conditions: single concentration of 1 μM, read-out: percent inhibition of kinase
Procedure: as §1

[10] = molecular target: YES (Homo sapiens, UniProt P07947); experiment: Kinase panel biochemical assay, YES; conditions: single concentration of 1 μM, read-out: percent inhibition of kinase
Procedure: as §1

[11] = molecular target: T1, ACK1; experiment: Kinase panel biochemical assay, ACK1; conditions: single concentration of 1 μM, read-out: percent inhibition of kinase
Procedure: as §1

[12] = system: OCI-AML3 (N-Ras Q61L); experiment: Proliferation inhibitory activity, OCI-AML3; assay type: cell-based, human; conditions: Homo sapiens, OCI-AML-3
Procedure: (§2) The inhibitory activities of the compounds of the present disclosure against the proliferation of the mt-NRAS (G12D) Ba/F3 and OCI-AML3 (mt-NRAS) cell lines were measured and the GI50 values thereof were calculated.

[13] = molecular target: FGFR4 (Homo sapiens, UniProt P22455); experiment: Kinase panel biochemical assay, FGFR4; conditions: single concentration of 1 μM, read-out: percent inhibition of kinase
Procedure: as §1

[14] = molecular target: DDR2 (Homo sapiens, UniProt Q16832); experiment: Kinase panel biochemical assay, DDR2; conditions: single concentration of 1 μM, read-out: percent inhibition of kinase
Procedure: as §1

[15] = molecular target: TYK2 (Homo sapiens, UniProt P29597); experiment: Kinase panel biochemical assay, TYK2; conditions: single concentration of 1 μM, read-out: percent inhibition of kinase
Procedure: as §1

[16] = molecular target: EPHA5 (Homo sapiens, UniProt P54756); experiment: Kinase panel biochemical assay, EPHA5; conditions: single concentration of 1 μM, read-out: percent inhibition of kinase
Procedure: as §1

[17] = molecular target: EPHA2 (Homo sapiens, UniProt P29317); experiment: Kinase panel biochemical assay, EPHA2; conditions: single concentration of 1 μM, read-out: percent inhibition of kinase
Procedure: as §1

[18] = molecular target: EPHB1 (Homo sapiens, UniProt P54762); experiment: Kinase panel biochemical assay, EPHB1; conditions: single concentration of 1 μM, read-out: percent inhibition of kinase
Procedure: as §1

[19] = molecular target: FGFR1 (Homo sapiens, UniProt P11362); experiment: Kinase panel biochemical assay, FGFR1; conditions: single concentration of 1 μM, read-out: percent inhibition of kinase
Procedure: as §1

[20] = molecular target: KHS (Homo sapiens, UniProt Q9Y4K4); experiment: Kinase panel biochemical assay, KHS; conditions: single concentration of 1 μM, read-out: percent inhibition of kinase
Procedure: as §1

[21] = molecular target: EPHB2 (Homo sapiens, UniProt P29323); experiment: Kinase panel biochemical assay, EPHB2; conditions: single concentration of 1 μM, read-out: percent inhibition of kinase
Procedure: as §1

[22] = molecular target: EPHA1 (Homo sapiens, UniProt P21709); experiment: Kinase panel biochemical assay, EPHA1; conditions: single concentration of 1 μM, read-out: percent inhibition of kinase
Procedure: as §1

[23] = molecular target: KDR (Homo sapiens, UniProt P35968); experiment: Kinase panel biochemical assay, KDR; conditions: single concentration of 1 μM, read-out: percent inhibition of kinase
Procedure: as §1

[24] = molecular target: FLT1 (Homo sapiens, UniProt P17948); experiment: Kinase panel biochemical assay, FLT1; conditions: single concentration of 1 μM, read-out: percent inhibition of kinase
Procedure: as §1

[25] = molecular target: p38a (Homo sapiens, UniProt Q16539); experiment: Kinase panel biochemical assay, p38a; conditions: single concentration of 1 μM, read-out: percent inhibition of kinase
Procedure: as §1

[26] = molecular target: c-Src (Homo sapiens, UniProt P12931); experiment: Kinase panel biochemical assay, c-Src; conditions: single concentration of 1 μM, read-out: percent inhibition of kinase
Procedure: as §1

[27] = molecular target: DDR1 (Homo sapiens, UniProt Q08345); experiment: Kinase panel biochemical assay, DDR1; conditions: single concentration of 1 μM, read-out: percent inhibition of kinase
Procedure: as §1

[28] = molecular target: LYN (Homo sapiens, UniProt P07948); experiment: Kinase panel biochemical assay, LYN; conditions: single concentration of 1 μM, read-out: percent inhibition of kinase
Procedure: as §1

[29] = molecular target: TAOK2 (Homo sapiens, UniProt Q9UL54); experiment: Kinase panel biochemical assay, TAOK2; conditions: single concentration of 1 μM, read-out: percent inhibition of kinase
Procedure: as §1

[30] = molecular target: JAK1 (Homo sapiens, UniProt P23458); experiment: Kinase panel biochemical assay, JAK1; conditions: single concentration of 1 μM, read-out: percent inhibition of kinase
Procedure: as §1

[31] = molecular target: FMS (Homo sapiens, UniProt P07333); experiment: Kinase panel biochemical assay, FMS; conditions: single concentration of 1 μM, read-out: percent inhibition of kinase
Procedure: as §1

[32] = system: Ba/F3 (N-Ras G12D); experiment: Proliferation inhibitory activity, Ba/F3 N-Ras G12D; assay type: cell-based; conditions: Mus musculus, BaF3
Procedure: as §2

T1 sequence (Q07912 whole entry): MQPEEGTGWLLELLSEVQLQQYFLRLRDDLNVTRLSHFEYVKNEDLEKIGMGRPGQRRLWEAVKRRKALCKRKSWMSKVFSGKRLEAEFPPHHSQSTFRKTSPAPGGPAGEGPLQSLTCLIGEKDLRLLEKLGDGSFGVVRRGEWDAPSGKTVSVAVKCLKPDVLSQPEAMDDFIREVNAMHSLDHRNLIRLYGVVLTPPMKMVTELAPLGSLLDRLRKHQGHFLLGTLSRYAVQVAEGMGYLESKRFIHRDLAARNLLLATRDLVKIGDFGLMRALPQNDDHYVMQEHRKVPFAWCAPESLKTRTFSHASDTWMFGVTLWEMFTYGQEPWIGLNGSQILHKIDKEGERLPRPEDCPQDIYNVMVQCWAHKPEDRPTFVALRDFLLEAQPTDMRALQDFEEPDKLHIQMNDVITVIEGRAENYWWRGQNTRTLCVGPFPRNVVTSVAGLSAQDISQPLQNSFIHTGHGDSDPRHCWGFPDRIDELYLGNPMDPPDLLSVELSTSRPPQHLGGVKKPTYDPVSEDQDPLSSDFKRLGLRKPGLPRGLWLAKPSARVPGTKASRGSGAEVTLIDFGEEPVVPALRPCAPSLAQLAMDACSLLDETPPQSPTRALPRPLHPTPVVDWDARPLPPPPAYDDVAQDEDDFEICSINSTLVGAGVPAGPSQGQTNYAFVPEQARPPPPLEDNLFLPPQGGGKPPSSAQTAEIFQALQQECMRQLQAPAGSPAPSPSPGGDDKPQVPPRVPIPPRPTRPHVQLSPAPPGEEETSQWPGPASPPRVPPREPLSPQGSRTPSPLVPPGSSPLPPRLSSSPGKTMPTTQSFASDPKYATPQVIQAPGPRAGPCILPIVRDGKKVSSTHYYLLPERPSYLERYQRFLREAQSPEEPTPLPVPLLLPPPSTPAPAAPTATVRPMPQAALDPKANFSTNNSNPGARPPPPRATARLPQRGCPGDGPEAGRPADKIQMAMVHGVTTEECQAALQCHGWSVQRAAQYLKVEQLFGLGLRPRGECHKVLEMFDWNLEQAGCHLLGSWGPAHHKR
FLT1, sequence (P17948 27-1338): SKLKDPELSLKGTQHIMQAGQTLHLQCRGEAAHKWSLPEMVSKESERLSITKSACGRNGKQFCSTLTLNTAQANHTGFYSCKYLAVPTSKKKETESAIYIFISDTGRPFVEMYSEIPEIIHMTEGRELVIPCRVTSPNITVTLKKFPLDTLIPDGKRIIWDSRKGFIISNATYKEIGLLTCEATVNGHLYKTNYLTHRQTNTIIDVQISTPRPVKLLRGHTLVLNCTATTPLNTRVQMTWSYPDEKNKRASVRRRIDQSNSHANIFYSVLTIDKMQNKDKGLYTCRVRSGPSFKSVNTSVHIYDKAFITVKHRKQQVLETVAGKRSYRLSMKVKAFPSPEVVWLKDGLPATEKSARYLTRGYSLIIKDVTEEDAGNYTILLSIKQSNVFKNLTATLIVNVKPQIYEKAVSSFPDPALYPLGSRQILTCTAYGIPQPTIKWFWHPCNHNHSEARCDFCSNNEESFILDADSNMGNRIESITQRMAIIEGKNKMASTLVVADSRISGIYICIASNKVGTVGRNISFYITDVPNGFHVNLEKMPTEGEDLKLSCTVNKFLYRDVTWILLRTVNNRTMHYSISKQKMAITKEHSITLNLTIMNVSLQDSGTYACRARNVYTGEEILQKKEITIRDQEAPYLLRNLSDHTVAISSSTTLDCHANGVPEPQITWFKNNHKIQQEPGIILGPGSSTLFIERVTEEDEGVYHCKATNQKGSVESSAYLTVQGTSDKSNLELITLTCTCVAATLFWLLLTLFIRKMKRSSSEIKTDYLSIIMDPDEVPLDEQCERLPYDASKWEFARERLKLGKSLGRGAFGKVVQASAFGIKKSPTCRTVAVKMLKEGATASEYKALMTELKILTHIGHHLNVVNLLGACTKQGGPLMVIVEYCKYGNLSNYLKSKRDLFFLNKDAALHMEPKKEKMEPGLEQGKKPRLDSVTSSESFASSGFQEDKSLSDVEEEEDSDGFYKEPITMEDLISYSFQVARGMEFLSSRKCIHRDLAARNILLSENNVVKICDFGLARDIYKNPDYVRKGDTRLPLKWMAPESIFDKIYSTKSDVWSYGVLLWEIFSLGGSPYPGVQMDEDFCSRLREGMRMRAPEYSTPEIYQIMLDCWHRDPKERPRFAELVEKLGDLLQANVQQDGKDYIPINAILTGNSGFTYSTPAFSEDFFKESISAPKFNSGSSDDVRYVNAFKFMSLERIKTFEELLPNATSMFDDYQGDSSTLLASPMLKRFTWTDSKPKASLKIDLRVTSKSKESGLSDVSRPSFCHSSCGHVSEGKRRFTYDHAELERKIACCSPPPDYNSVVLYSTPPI
LYN, sequence (P07948 whole entry): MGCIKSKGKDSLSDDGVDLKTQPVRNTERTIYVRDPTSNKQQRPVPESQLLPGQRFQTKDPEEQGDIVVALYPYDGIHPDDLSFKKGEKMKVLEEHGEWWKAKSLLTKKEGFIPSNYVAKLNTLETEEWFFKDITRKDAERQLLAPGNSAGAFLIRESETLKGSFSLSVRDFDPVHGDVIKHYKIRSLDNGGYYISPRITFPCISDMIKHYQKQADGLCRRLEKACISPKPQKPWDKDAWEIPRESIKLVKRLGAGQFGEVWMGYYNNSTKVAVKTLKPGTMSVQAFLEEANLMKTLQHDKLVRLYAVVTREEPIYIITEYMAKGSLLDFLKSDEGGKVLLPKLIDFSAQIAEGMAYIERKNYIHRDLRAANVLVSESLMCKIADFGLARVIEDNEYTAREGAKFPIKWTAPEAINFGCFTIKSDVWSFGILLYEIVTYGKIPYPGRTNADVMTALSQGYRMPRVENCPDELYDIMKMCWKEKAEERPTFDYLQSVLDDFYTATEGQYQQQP
p38a, sequence (Q16539 whole entry): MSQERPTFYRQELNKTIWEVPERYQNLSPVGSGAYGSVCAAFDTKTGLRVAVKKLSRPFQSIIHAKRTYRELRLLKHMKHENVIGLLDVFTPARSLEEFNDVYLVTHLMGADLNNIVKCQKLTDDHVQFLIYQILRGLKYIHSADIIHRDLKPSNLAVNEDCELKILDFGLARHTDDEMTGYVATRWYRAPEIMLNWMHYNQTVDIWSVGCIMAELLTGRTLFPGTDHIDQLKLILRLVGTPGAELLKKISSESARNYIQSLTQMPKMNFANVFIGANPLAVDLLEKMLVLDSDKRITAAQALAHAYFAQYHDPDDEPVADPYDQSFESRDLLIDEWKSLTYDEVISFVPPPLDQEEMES
DDR1, sequence (Q08345 19-913): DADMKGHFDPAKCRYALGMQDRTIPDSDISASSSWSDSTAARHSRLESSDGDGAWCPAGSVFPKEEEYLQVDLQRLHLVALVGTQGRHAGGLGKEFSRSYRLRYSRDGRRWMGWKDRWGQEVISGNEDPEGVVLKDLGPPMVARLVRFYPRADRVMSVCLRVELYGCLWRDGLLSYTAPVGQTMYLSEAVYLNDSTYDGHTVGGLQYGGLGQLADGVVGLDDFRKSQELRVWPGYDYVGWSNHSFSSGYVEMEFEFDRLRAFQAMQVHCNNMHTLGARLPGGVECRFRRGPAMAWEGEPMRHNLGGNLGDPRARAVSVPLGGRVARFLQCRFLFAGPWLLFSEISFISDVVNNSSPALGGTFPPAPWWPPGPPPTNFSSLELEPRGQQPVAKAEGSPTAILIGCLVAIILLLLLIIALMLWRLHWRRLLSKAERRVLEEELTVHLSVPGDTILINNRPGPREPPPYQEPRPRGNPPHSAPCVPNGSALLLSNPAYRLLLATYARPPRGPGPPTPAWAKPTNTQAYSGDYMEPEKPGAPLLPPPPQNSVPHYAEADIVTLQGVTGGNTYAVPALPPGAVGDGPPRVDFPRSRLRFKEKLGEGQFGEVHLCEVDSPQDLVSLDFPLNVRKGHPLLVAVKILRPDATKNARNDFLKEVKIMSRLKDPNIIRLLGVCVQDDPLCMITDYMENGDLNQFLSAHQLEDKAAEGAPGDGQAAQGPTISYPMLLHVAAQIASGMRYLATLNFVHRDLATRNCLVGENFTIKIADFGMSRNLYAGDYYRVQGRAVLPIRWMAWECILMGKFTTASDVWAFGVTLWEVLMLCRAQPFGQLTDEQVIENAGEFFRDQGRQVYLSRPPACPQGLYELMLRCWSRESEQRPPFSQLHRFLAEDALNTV
EPHA2, sequence (P29317 24-976): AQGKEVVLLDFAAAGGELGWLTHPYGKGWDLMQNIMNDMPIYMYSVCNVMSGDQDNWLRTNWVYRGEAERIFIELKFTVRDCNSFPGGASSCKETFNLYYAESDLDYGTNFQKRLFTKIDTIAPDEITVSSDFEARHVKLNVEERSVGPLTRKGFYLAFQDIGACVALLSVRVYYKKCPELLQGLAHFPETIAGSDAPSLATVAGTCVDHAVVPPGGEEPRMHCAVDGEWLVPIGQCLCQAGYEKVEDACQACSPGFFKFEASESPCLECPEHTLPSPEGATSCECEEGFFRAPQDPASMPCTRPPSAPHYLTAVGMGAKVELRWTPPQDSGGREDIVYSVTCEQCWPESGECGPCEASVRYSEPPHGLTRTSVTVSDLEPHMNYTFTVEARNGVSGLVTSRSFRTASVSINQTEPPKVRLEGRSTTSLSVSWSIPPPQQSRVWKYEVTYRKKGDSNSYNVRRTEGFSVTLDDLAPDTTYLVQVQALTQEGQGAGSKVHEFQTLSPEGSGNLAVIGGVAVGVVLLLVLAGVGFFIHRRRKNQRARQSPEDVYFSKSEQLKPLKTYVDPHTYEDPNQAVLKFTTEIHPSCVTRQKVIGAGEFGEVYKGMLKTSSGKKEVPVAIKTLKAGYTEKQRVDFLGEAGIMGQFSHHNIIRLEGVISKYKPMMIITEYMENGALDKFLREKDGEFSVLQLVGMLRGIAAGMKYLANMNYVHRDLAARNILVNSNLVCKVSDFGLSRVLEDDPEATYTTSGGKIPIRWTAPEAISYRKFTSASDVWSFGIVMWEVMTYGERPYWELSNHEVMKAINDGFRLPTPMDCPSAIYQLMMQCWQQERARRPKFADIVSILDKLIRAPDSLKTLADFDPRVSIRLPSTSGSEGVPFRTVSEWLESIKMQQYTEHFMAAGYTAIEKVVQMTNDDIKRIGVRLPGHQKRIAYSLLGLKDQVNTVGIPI

Cc1ccc(NC(=O)c2cccc(C(F)(F)F)c2)cc1-c1cc2cnc(N)nc2c(=O)[nH]1 [Compound No. 55, N-(3-(2-amino-8-oxo-7,8-dihydropyrido[3,4-d]pyrimidin-6-yl)-4-methylphenyl)-3-(trifluoromethyl)benzamide]
≥ 70%: inhibition at 1 µM [1] | inhibition at 1 µM [2] | inhibition at 1 µM [3] | inhibition at 1 µM [4] | inhibition at 1 µM [6] | inhibition at 1 µM [7] | inhibition at 1 µM [8] | inhibition at 1 µM [9] | inhibition at 1 µM [10] | inhibition at 1 µM [11] | inhibition at 1 µM [13] | inhibition at 1 µM [14] | inhibition at 1 µM [15] | inhibition at 1 µM [16] | inhibition at 1 µM [17] | inhibition at 1 µM [18] | inhibition at 1 µM [19] | inhibition at 1 µM [20] | inhibition at 1 µM [21] | inhibition at 1 µM [22] | inhibition at 1 µM [23] | inhibition at 1 µM [24] | inhibition at 1 µM [25] | inhibition at 1 µM [26] | inhibition at 1 µM [27] | inhibition at 1 µM [28] | inhibition at 1 µM [29] | inhibition at 1 µM [30] | inhibition at 1 µM [31]
100 to 1000 nM: IC50 [5]
< 0.5 µM: GI50 [12] | GI50 [32]
